Assay results as given in patent US8273761B2, “Tricyclic compound and medical use thereof” (Takeda Pharmaceutical Company Limited, priority 2006, dated 2012).

Legend:
[1] = target: T1, human melatonin 2 receptors (human MT2 receptors) (Homo sapiens, UniProt P49286); experiment: Melatonin receptor binding inhibitory test (MT2); conditions: 2-[125I] Iodomelatonin 1 nM solution, membrane fraction of CHO-hMT2 cells, 25° C. for 2.5 hr
T1 construct: expressed in transfected cells
T1 sequence (P49286 1-362): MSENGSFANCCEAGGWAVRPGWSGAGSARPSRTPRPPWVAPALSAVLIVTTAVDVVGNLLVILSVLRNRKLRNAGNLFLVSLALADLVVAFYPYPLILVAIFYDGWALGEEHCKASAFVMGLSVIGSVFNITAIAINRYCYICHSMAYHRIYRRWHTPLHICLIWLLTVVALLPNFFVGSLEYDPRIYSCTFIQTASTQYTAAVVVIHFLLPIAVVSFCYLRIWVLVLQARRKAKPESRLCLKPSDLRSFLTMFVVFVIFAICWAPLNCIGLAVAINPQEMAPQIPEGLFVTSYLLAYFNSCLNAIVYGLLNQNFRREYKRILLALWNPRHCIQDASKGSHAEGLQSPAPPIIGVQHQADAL
Description: Melatonin Receptor Binding Inhibitory Test (2) Preparation of CHO-hMT2 Cells Expressing Human Melatonin 2 Receptors A cDNA fragment (SEQ ID NO: 2) encoding full-length of human melatonin 2 receptors (human MT2 receptors) was incorporated into expression vector pCMV-Script (Stratagene, #212220) to give the plasmid that was pCMV-human MT2 receptors expression vector for animal cell expression. CHO-K1 cells (ATCC, #CCL-61) were plated at the concentration of 1.5×10^5 cells/cm^2 in a 6 well plate (ASAHI TECHNO GLASS), and cultured under the conditions of 37° C., 5% CO2 for 24 hr. For gene transfection, solution obtained by blending pCMV-human MT2 receptors expression vector (1.9 μg), Lipofectamine Transfection Reagent (Invitrogen, #18324-012) (11.3 μL) and Minimum Essential Medium Eagle (MEM) medium (Sigma, M8042) (93.8 μL), and reacting at room temperature for 20 min was added to the cells per one well. The transfected cells were cultured in MEM medium containing 10% FBS (Life Technology) and 300 μg/mL Geneticin (GIBCO, #10131), and the cell line that stably expressed the plasmid gene was selected. By a receptor binding assay using 2-[^125I] […] (3) Preparation of Cellular Membrane Fraction of CHO Cell (CHO-hMelR7 and CHO-hMT2) Stably Expressing Human MT1 and MT2 Receptors CHO-hMelR7 and CHO-hMT2 cells were plated using Cellfactory (Nunc, #170009) under the conditions of 1×10^8 cells/2000 mL/flask. The cells were grown to confluent, and recovered by the following method. As the medium for CHO-hMelR7 and CHO-hMT2, MEM α containing 10% FBS and penicillin/streptomycin was used. 300 ng/mL of geneticin was added to the medium for CHO-hMT2. The medium was discarded, cells were washed twice with 200 mL of EDTA/PBS(-), 200 mL of EDTA/PBS(-) was further added, and the cells were stood still at room temperature for 20 min until they were released. The cells were recovered in four 50 mL tubes (Becton Dickinson, #352070), and centrifuged at 1,500 rpm for 10 min at 4° C. using a low speed cooling centrifuge (Hitachi, CF7D2). The supernatant was discarded, the pellets in the four tubes were suspended in 10 mL of PBS(-), and combined in one tube (Becton Dickinson, #352070). The mixture was further centrifuged at 1,500 rpm for 10 min at 4° C., and the obtained pellets were suspended in 20 mL of ice-cooled homogenizing buffer [10 mM NaHCO3, 5 mM EDTA, Protease inhibitor Complete (Roche), pH 7.4]. The cell suspension was homogenized 3 times using a polytron homogenizer at 20,000 rpm for 30 sec. The obtained homogenate was centrifuged (2,000 rpm, 10 min, 4° C.) using a low speed cooling centrifuge. The supernatant was recovered in an ultracentrifugation tube and ultracentrifuged (40,000 rpm, 60 min, 4° C.) using an ultracentrifuge (Beckman, […]). To the obtained pellets was added a suspending buffer [50 mM Tris-HCl, 1 mM EDTA, Protease inhibitor Complete (Roche), pH 7.4], and the pellets were suspended by pipetting. The protein concentration of this suspension was measured, diluted to 2 mg/mL to give cellular membrane fractions of CHO-hMelR7 and CHO-hMT2 cells. […] Protein was quantified using BCA protein assay kit (Pierce) with BSA as the standard. (4) Preparation of Membrane Fraction Suspension Immediately before use, the membrane fractions of CHO-hMelR7 and CHO-hMT2 cells of the above-mentioned (3) were diluted 20-fold with assay buffer (50 mM Tris-HCl, pH 7.7). (5) Preparation of 2-[^125I] […] (6) Binding Reaction The assay buffer (80 μL) of the above-mentioned (4) was added to each well of a 96-well plate (type 3363, Corning). […] (7) Measurement Using a cell harvester (PerkinElmer), the binding reaction mixture in each well of the 96-well plate was transferred to a treated (immersed in 50 mM Tris, pH 7.7 in advance) filter plate (UniFilter GF/C, PerkinElmer) and filtered.

[2] = target: T2, human melatonin 1 receptors (human MT1 receptors) (Homo sapiens, UniProt P48039); experiment: Melatonin receptor binding inhibitory test (MT1); conditions: 2-[125I] Iodomelatonin 400 pM solution, membrane fraction of CHO-hMelR7 cells, 25° C. for 2.5 hr
T2 construct: expressed in transfected cells
T2 sequence (P48039 whole entry): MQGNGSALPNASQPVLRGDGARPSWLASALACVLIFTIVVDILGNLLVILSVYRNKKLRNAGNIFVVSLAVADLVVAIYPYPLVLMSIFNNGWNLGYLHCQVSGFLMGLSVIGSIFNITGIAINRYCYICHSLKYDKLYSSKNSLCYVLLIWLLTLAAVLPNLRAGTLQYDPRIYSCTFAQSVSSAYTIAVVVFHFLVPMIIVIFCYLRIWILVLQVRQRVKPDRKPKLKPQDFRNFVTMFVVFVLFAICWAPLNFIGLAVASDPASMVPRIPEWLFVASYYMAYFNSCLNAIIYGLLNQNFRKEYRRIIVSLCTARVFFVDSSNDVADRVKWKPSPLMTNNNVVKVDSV
Description: Biochim Biophys Acta. Vol. 1219(2), pp. 251-259, 1994) to give plasmid pAKKO-hMelR7 for animal cell expression. CHO/dhfr-cells (ATCC, #CRL-9096) were plated at a concentration of 0.3×10^6 cells/dish in a 6 cm culture dish (Becton Dickinson), and cultured under the conditions of 37° C., 5% CO2 for 48 hr. The cells were transfected with pAKKO-hMelR7 plasmid DNA (5 μg) using […] Transfection Kit (Amersham, #27-9268-01). The transfected cells were cultured in Dulbecco's modified Eagle medium (DMEM) (Sigma, #D6046) containing 10% dialyzed FBS ([…]), 1× Non-Essential Amino Acid (Invitrogen, #11140-050) and 50 μg/mL Gentamycin (Invitrogen, #15750-060), and the cell line that stably expressed the plasmid gene was selected. By a receptor binding assay using 2-[^125I] […] (3) Preparation of Cellular Membrane Fraction of CHO Cell (CHO-hMelR7 and CHO-hMT2) Stably Expressing Human MT1 and MT2 Receptors CHO-hMelR7 and CHO-hMT2 cells were plated using Cellfactory (Nunc, #170009) under the conditions of 1×10^8 cells/2000 mL/flask. The cells were grown to confluent, and recovered by the following method. As the medium for CHO-hMelR7 and CHO-hMT2, MEM α containing 10% FBS and penicillin/streptomycin was used. 300 ng/mL of geneticin was added to the medium for CHO-hMT2. The medium was discarded, cells were washed twice with 200 mL of EDTA/PBS(-), 200 mL of EDTA/PBS(-) was further added, and the cells were stood still at room temperature for 20 min until they were released. The cells were recovered in four 50 mL tubes (Becton Dickinson, #352070), and centrifuged at 1,500 rpm for 10 min at 4° C. using a low speed cooling centrifuge (Hitachi, CF7D2). The supernatant was discarded, the pellets in the four tubes were suspended in 10 mL of PBS(-), and combined in one tube (Becton Dickinson, #352070). The mixture was further centrifuged at 1,500 rpm for 10 min at 4° C., and the obtained pellets were suspended in 20 mL of ice-cooled homogenizing buffer [10 mM NaHCO3, 5 mM EDTA, Protease inhibitor Complete (Roche), pH 7.4]. The cell suspension was homogenized 3 times using a polytron homogenizer at 20,000 rpm for 30 sec. The obtained homogenate was centrifuged (2,000 rpm, 10 min, 4° C.) using a low speed cooling centrifuge. The supernatant was recovered in an ultracentrifugation tube and ultracentrifuged (40,000 rpm, 60 min, 4° C.) using an ultracentrifuge (Beckman, […]). To the obtained pellets was added a suspending buffer [50 mM Tris-HCl, 1 mM EDTA, Protease inhibitor Complete (Roche), pH 7.4], and the pellets were suspended by pipetting. The protein concentration of this suspension was measured, diluted to 2 mg/mL to give cellular membrane fractions of CHO-hMelR7 and CHO-hMT2 cells. […] Protein was quantified using BCA protein assay kit (Pierce) with BSA as the standard. (4) Preparation of Membrane Fraction Suspension Immediately before use, the membrane fractions of CHO-hMelR7 and CHO-hMT2 cells of the above-mentioned (3) were diluted 20-fold with assay buffer (50 mM Tris-HCl, pH 7.7). (5) Preparation of 2-[^125I] […] (6) Binding Reaction The assay buffer (80 μL) of the above-mentioned (4) was added to each well of a 96-well plate (type 3363, Corning). […] (7) Measurement Using a cell harvester (PerkinElmer), the binding reaction mixture in each well of the 96-well plate was transferred to a treated (immersed in 50 mM Tris, pH 7.7 in advance) filter plate (UniFilter GF/C, PerkinElmer) and filtered. After filtration, the plate was washed 4 times with the assay buffer, and dried in a dryer (42° C.) for 2 hr or more. 25 μL of a liquid scintillator (MicroScint O, PerkinElmer) was added to each well of the filter plate after drying, and the luminescence of scintillator was measured by TopCount (PerkinElmer) for 1 min. Specific binding is a value obtained by subtracting nonspecific binding from the total binding.

Row | melting point [°C] | IC50 [1] [µM] | IC50 [2] [µM] | SMILES
1 | 163 to 164 | – | – | CCC(=O)NC/C=C1\CCc2ncc3c(c21)CCO3 [Example 32, N-[(2E)-2-(1,2,6,7-tetrahydro-8H-cyclopenta[b]furo[3,2-d]pyridin-8-ylidene)ethyl]propanamide]
2 | 104 to 106 | ≤ 0.1 | – | CCC(=O)NCCc1cnn2ccc3occc3c12 [Example 1, N-(2-furo[3,2-c]pyrazolo[1,5-a]pyridin-1-ylethyl)propanamide]
3 | – | – | ≤ 0.1 | O=C(NCCC1CCc2cnc3c(c21)CCO3)C1CC1 (centres unmarked) [Example 26, N-[2-(1,6,7,8-tetrahydro-2H-cyclopenta[d]furo[2,3-b]pyridin-8-yl)ethyl]cyclopropanecarboxamide]
4 | – | – | ≤ 0.1 | CC(=O)NCCC1CCc2cnc3c(c21)CCO3 (centres unmarked) [Example 19, N-[2-(1,6,7,8-tetrahydro-2H-cyclopenta[d]furo[2,3-b]pyridin-8-yl)ethyl]acetamide]
